The text below walks through data of patent US20080200428A1, “Antiproliferative Drug” (priority 2005, published 2008).

pIC50: −log10 of the molar value. Marks after values point to notes of the source that are not given here.

The subject of assay [1] is SK-OV-3 human ovary carcinoma cells. The experiment in a line: In-vitro antiproliferative activity, MTT test. Conditions: 5 days treatment, MTT on day 6, read-out: IC50, concentration necessary to reduce cell growth to 50% of control. It counts as cell-based. As for the experimental part:
(§1) Antiproliferative activity of the conjugates was determined on 2 lines of human mammary carcinoma (MCF-7, MDA-MB-231), and on 2 lines of human ovary carcinoma (SK-OV-3, IGR-OV1) with different Reduced Folate Carrier (RFC) expression, and on a non-tumour line originating from healthy mammary ductal epithelium (HBL-100 line). Cells were incubated in 96-well plates for 5 days in complete medium (consisting of DMEM/F12, with 10% FBS, foetal bovine serum, 1% L-glutamine 100× (200 mM) and 1% penicillin-streptomycin (Euroclone) for MCF-7, IGROV-1 and MDA-MB-231; RPMI-1640 with 10% FBS, foetal bovine serum, 1% L-glutamine 100× (200 mM) and 1% penicillin-streptomycin (Euroclone) for SKOV-1; McCoy's with 10% FBS, foetal bovine serum, 1% L-glutamine 100× (200 mM) and 1% penicillin-streptomycin (Sigma) for HBL-100 at 37° C. and controlled atmosphere (5% CO2), with MTX-Na or with conjugate; the conjugates were tested at doses equimolar with those of MTX-Na, in the range 1-30 nM. Cytotoxicity was determined on day 6 (after 5 days treatments) by the MTT test, by measuring cell viability as the cell metabolic capacity to transform the tetrazolium salt of MTT in the blue formazan, by mitochondrial dehydrogenases; the blue colour is read at 570 nm with a spectrophotometer. The following conjugates were tested.
For orientation: Tetrazolium dyes change colour on reduction, which living cells bring about.

Assay [2] relates to IGR-OV1 human ovary carcinoma cells. The experiment in a line: In-vitro antiproliferative activity, MTT test. It counts as cell-based. Conditions: 5 days treatment, MTT on day 6, read-out: IC50, concentration necessary to reduce cell growth to 50% of control. As for the experimental part: as §1
The test system of assay [3] is MCF-7 human mammary carcinoma cells. Description: In-vitro antiproliferative activity, MTT test. The class given is cell-based. The conditions noted are these: 5 days treatment, MTT on day 6, read-out: IC50, concentration necessary to reduce cell growth to 50% of control. As for the experimental part:
as §1

Assay [4] has as its system HBL-100 non-tumour line from healthy mammary ductal epithelium. Description: In-vitro antiproliferative activity, MTT test. The conditions noted are these: 5 days treatment, MTT on day 6, read-out: IC50, concentration necessary to reduce cell growth to 50% of control. It counts as cell-based, human. As for the experimental part:
as §1

In the next assay the test system is B16/F10 melanoma cells. Description: In-vivo antiproliferative activity: liver metastases after intraspleen implant of B16/F10 melanoma. Details: species or system BD2F1 mice. Conditions: for Animals free of macroscopically detectable liver metastases over total number of mice / Mice with metastases larger than 3 mm / Mice with more than 3 visible hepatic tumour nodules / Spleen weight: Day 21. As for the experimental part:
BD2F1 mice weighing 18-20 g were implanted intraspleen (i.s) with 100.000 B16/F10 melanoma cells on Day 0, under sterile conditions and Zoletil® (70 mg/kg), anaesthesia, following surgical opening of peritoneum and spleen immobilisation. Tumour cells, suspended in diluted Matrigel® (150 μg/ml), were injected i.s. in a volume of 0.05 ml. The B16F10 melanoma cells were cultured in Modified Eagle Medium. Cells were maintained in a humidified 5% CO2 atmosphere at 37° C. Animals were then randomly divided into 5 groups (each of 7-8 female), implanted i.s. with 100.000 B16/F10 melanoma cells on Day 0, were treated i.v. (on Days 3, 6 and 9) with HA-MTX at 2, 1 and 0.50 mg/kg/day or MTX-Na at 8.5, 6 and 3 mg/kg/day. Doses are referred to equivalents of MTX. The data originate from 4 separate experiments.
The evaluation of livers and counting of liver metastases under a low power stereo microscope equipped with a calibrated grid was performed on Day 21. Livers were then stored in formaldehyde for preparation for light microscopy observations.

The mark [5] stands for this setting: 0.5 mg MTX/kg/die i.v. on days 3, 6, 9.
Where [6] appears, read: 1 mg MTX/kg/die i.v. on days 3, 6, 9.
Where [7] appears, read: 2 mg MTX/kg/die i.v. on days 3, 6, 9.
Where [8] appears, read: 3 mg MTX/kg/die i.v. on days 3, 6, 9.
Where [9] appears, read: 6 mg MTX/kg/die i.v. on days 3, 6, 9.
[10] abbreviates: 8.5 mg MTX/kg/die i.v. on days 3, 6, 9.

“6-O-acetyl-6-O-methotrexyl-hyaluronic acid [Ex 21]”: the pIC50 in assay [1] is 5.74; in assay [2], 5.56; in assay [3], 5.71; in assay [4], 5.69.

For “6-O-Butyryl-6-O-methotrexyl-hyaluronic acid [Ex 24]”, the pIC50 in assay [1] was 5.78; in assay [2], 5.67; in assay [3], 5.77; in assay [4] it was 5.68.

HA-MTX [Ex 18]: in the assay on B16/F10 melanoma cells (setting [5]), the “Animals free of macroscopically detectable liver metastases over total number of mice” value (shortened to “Animals free … over total number of mice”) was 6/15**, the “Mice with metastases larger than 3 mm” value was determined as 13%, the “Mice with more than 3 visible hepatic tumour nodules” value is recorded as 27% and the Spleen weight was 155 ± 16 mg. In the assay with B16/F10 melanoma cells (setting [6]), the “Animals free … over total number of mice” value is listed as 9/16***, the “Mice with metastases larger than 3 mm” value turned out to be 0%, the “Mice with more than 3 visible hepatic tumour nodules” value turned out to be 31% and the Spleen weight is reported as 199 ± 27 mg. Further, in the assay on B16/F10 melanoma cells (setting [7]), the “Animals free … over total number of mice” value is 14/14***^§, the “Mice with metastases larger than 3 mm” value was 0%^; 0%°, the “Mice with more than 3 visible hepatic tumour nodules” value is reported as 0%^; 0%° and the Spleen weight was found to be 150 ± 37 mg. For the same compound, the “Dose giving comparable liver metastasis reduction, as fraction of the MTX-Na dose” value in the assay on B16/F10 melanoma cells (1 and 0.5 mg/kg/day vs 6 and 3 mg/kg/day MTX-Na) was “⅙”. The “Prevention of formation of liver metastasis” value in the assay on B16/F10 melanoma cells (both after i.v. and i.p. administration) is listed as “effective in preventing the formation of liver metastasis”. The “Effect on liver metastases of B16/F10 melanoma” value with B16/F10 melanoma cells (i.v. 2 mg/kg/day (MTX equivalents) on days 3,6,9) is “complete disappearance of liver metastases”.

Consider `CN(Cc1cnc2nc(N)nc(N)c2n1)c1ccc(C(=O)N[C@@H](CCC(=O)O)C(=O)O)cc1` [MTX-Na, methotrexate, reference compound], for which the pIC50 in assay [1] is 7.39; in assay [2], 6.85; in assay [3], 7.09; in assay [4] it was 6.30. The “Animals free … over total number of mice” value with B16/F10 melanoma cells (setting [8]) is listed as 6/16*; with B16/F10 melanoma cells (setting [9]) it was 7/14**; in the assay on B16/F10 melanoma cells (setting [10]), 8/16**. Also, the “Mice with metastases larger than 3 mm” value in the assay with B16/F10 melanoma cells (setting [8]) is reported as 19%; in the assay on B16/F10 melanoma cells (setting [9]) it was 0%; with B16/F10 melanoma cells (setting [10]), 0%. The “Mice with more than 3 visible hepatic tumour nodules” value worked out at 38% in the assay with B16/F10 melanoma cells (setting [8]), 21% in the assay on B16/F10 melanoma cells (setting [9]) and 13% in the assay on B16/F10 melanoma cells (setting [10]). The Spleen weight in the assay with B16/F10 melanoma cells (setting [8]) turned out to be 227 ± 36 mg; in the assay with B16/F10 melanoma cells (setting [9]), 159 ± 7 mg; in the assay with B16/F10 melanoma cells (setting [10]) it was 149 ± 24 mg.
